# Measurements reported in patent US20030073740A1, “Methods for treatment of lupus erythematosus” (priority 2001, published 2003).
# Structures can show the parent of a compound that is named as a salt.
# How the values were obtained:
# rats [1] = assay: seven-day dose-range finding study in rats; type: in vivo; conditions: seven days
# rats [2] = assay: long-term (91-day) safety assessment study in rats; type: in vivo
# From the text: These changes were not associated with any gross clinical abnormality.
# U937 cells = assay: apoptosis induction of U937 cells (active caspase 3 immunofluorescence); type: cell-based; parameters: apoptosis as reflected by active caspase 3 (FIG. 8): dose or concentration left out as unconfirmed; conditions: for Percentage of apoptotic cells / Number of apoptotic cells: 24 hrs; for Number of apoptotic cells: active caspase 3, 500 cells scored
# Procedure: U937 cells (from ATCC Rockville, Md.) were grown in RPMI media supplemented with 5% FCS, glutamine, antibiotic/antimycotic and sodium pyruvate. Total RNA was isolated from two U937 cultures, one treated with 5 nM TPA for 48 hours and one grown in normal media as listed above, using the Rouche High Pure RNA Isolation Kit (cat# 1 828 665) as per manufacturers protocol. cDNA was then synthesized from the total RNA using GibcoBRL SuperscriptII (Cat # 18064-022) reverse transcriptase as per manufacturers protocol. The resulting cDNA was used as a template for RT-PCR reactions using primer sets specific for PDE2 (forward: […], reverse: […]) or PDE5 (forward: […], reverse: […]). mRNA for PDE2 and 5 were both present in the untreated U937 cells. Upon treatment with TPA, the relative amounts of PDE2 mRNA increased 5 fold. Therefore, U937 cells treated with TPA and driven to differentiate into an activated macrophage like state have elevated levels of PDE2 mRNA (see FIG. 1).
# The presence of PDE2 and PDE5 protein within U937 cells was confirmed by indirect immunofluorescence (IIF). U937 cells were cultured as above. Two U937 cultures, one grown in the presence of 5 nM TPA for 48 hours and one grown in normal media were processed. All cultures were collected by centrifugation (Shandon Cytospin, 2 minutes @ 600 rpm) onto poly-L lysine-coated slides and immediately fixed in fresh 3% paraformaldehyde buffered in PBS for 10 minutes. Adherent cultures were grown on coverslips and fixed as above. Cells were permeablized in 0.2% triton-100 for 2 minutes. Slides were blocked with blocking buffer (5% goat serum, 5% glycerol, 1% gelatin from cold water fish skin and 0.04% NaN3 in PBS) for 1 hour at room temperature.
# Adherent cells were dislodged by treatment with trypsin EDTA for 5 minutes at 37° C. Cells were then processed for IIF as described above, except that an antibody specific for active caspase 3 was used (as per manufacturer's protocol) instead of antibodies to PDE2 or 5 (Promega Cat. #G7481). The anti-active caspase 3 antibody was diluted 1:200 in blocking buffer and processed according to the manufacturer's protocol. The resulting slides were observed under a fluorescent microscope and a digital images were obtained.
# The level of apoptosis in U937 cells was quantified by scoring 500 consecutive cells for the presence of active caspase 3.
# The cells were harvested and processed for IIF as described above using an antibody that specifically recognizes active caspase 3. […] Therefore, the inhibition of only PDE4 or PDE5 alone (i.e. without the inhibition of PDE2) is not sufficient to induce apoptosis in U937 cells.
# PDE5 = biological target: T1, PDE5 (Homo sapiens, UniProt O76074); assay: competitive binding (with cGMP) to PDE5
# T1 construct: partially purified cGMP-specific PDE isolated from HT-29 cells; endogenous in cells; host or cells: HT-29
# dogs [3] = assay: acute and seven-dose toxicity in dogs (capsules); conditions: dog, in vivo
# Procedure: Therefore, these dogs were subsequently administered seven consecutive doses of 1000 mg/kg/day.
# [4] = biological target: T2, GST-cGB-PDE5 fusion protein (cGMP binding sites of human PDE5A) (Homo sapiens, UniProt O76074); assay: cGMP binding assay with GST-cGB-PDE5 fusion protein
# T2 construct: made in house; host or cells: E. coli BL21 (DE3)
# From the text: RT-PCR method is used to obtain the cGB domain of PDE5 with forward and reverse primers designed from bovine PDE5A cDNA sequence (McAllister-Lucas L. M. et al, J. Biol. Chem. 268, 22863-22873, 1993) and the selection among PDE 1-10 families. 5′-3′, Inc. kits for total RNA followed by oligo (dT) column purification of mRNA are used with HT-29 cells. […] It is then cloned into pGEX-5X-3 glutathione-S-transferase (GST) fusion vector (Pharmacia Biotech )with tac promoter, and EcoR1 and XhoI cut sites. The fusion vector is then transfected into E. Coli BL21 (DE3) bacteria (Invitrogen). The transfected BL21 bacteria is grown to log phase, and then IPTG is added as an inducer. The induction is carried at 20° C. for 24 hrs. The bacteria are harvested and lysed. The soluble cell lysate is incubated with GSH conjugated Sepharose 4B (GSH-Sepharose 4B). The GST-cGB-PDE5 fusion protein can bind to the GSH-Sepharose beads, and the other proteins are washed off from beads with excessive cold PBS.
# Then, the mixture is transferred to Brandel MB-24 cell harvester with GF/B as the filter membrane followed by 2 washes with 10 mL of cold 5 mM potassium buffer(pH 6.8). The membranes are then cut out and transferred to scintillation vials followed by the addition of 1 mL of H2O and 6 mL of Ready Safe™ liquid scintillation cocktail to each vial. The vials are counted on a Beckman LS 6500 scintillation counter.
# The quenching by filter membrane or other debris are also calibrated.
# PDE4 = assay: PDE inhibition, similar protocols: PDE4; type: biochemical
# rats [5] = assay: acute toxicity study in rats; conditions: rat, in vivo
# human patients = assay: single, escalating dose human clinical trial (safety); type: in vivo; conditions: oral, 50, 100, 200 and 400 mg BID
# dogs [6] = assay: 91-day oral study in dogs; type: in vivo
# rats [7] = assay: 28-day study in rats; type: in vivo
# Procedure: A 28-day study in rats was also carried out at 0, 50, 500 and 2000 mg/kg/day.
# PDE1 = assay: PDE inhibition, similar protocols: PDE1; type: biochemical
# [8] = test system: TNF-α secreted by TPA-induced U937 cells; assay: TNF-α immunoassay on U937 cell culture media; type: cell-based
# Procedure: One function of macrophages is to modulate the activity of other inflammatory cells through various cytokine molecules.
# TNF-α levels in the cell culture media were determined by using the TNF-α Immunoassay from R&D Systems (Cat. # DTA50) according to the manufacturer's protocol.
# [9] = U937, TPA 5 nM, 16 hrs, then 1 uM
# [10] = 28 days, 50, 500 and 2000 mg/kg/day
smiles,measurement,setting,value
"CC1=C(CC(=O)NCc2ccccc2)c2cc(F)ccc2/C1=C\c1ccncc1 [Compound 38, (Z)-5-Fluoro-2-Methyl-(4-Pyridylidene)-3-(N-Benzyl) Indenylacetamide Hydrochloride]",signs of toxicity,rats [1]; 50 mg/kg/day,no observable signs of toxicity
same,treatment-related effects,rats [1]; 500 mg/kg/day,increase in absolute and relative liver weights in female rats
same,treatment-related effects,rats [1]; 2000 mg/kg/day,"labored breathing and/or abnormal respiratory sounds, decreased weights gains and food consumption in male rats, and increased liver weights in female rats"
same,"hematology, blood chemistry, microscopic pathology","rats [1]; any dose level (50, 500, 2000 mg/kg/day)",No hematological or blood chemistry changes nor any microscopic pathology changes
same,clinical biochemistry and hematology,rats [2]; 91 days,no changes in clinical biochemistry and hematology
same,"microscopic finding, follicular cells","rats [2]; 91 days, 500 mg/kg/day",follicular cell hypertrophy
same,"microscopic finding, kidneys","rats [2]; 91 days, 200 and 500 mg/kg/day",increase in accumulation of hyalin droplets in the kidneys
same,"microscopic finding, liver","rats [2]; 91 days, 200 and 500 mg/kg/day",slight hepatocellular hypertrophy
same,organ weights,"rats [2]; 91 days, males and females at 200 and 500 mg/kg/day",dose-related trend to increased liver and thyroid/parathyroid weights
same,toxicological effects,"rats [2]; oral, 91 consecutive days, 50, 200 and 500 mg/kg/day",did not produce any major toxicological effects
same,Percentage of apoptotic cells,U937 cells; [9],78%
same,Number of apoptotic cells,U937 cells; [9],392/500
same,Percentage of apoptotic cells,"U937 cells; U937, no TPA treatment, 1 uM",75%
same,Number of apoptotic cells,"U937 cells; U937, no TPA treatment, 1 uM",375/500
same,apoptosis as reflected by active caspase 3 (FIG. 8),U937 cells; U937 cells treated with compound 38,undergoing apoptosis
same,induction of apoptosis,U937 cells; differentiated and non-differentiated U937 cell line,causes the induction of apoptosis
same,competitive (with cGMP) binding to PDE5,PDE5,does competitively (with cGMP) bind
same,signs of toxicity,dogs [3]; 1000 mg/kg,no signs of toxicity
same,signs of drug-related effects,dogs [3]; 1000 mg/kg/day,At no time in either dosing phase were any obvious signs of drug-related effects observed
same,binding to the cGMP-binding site of PDE5,[4],does not bind
same,IC50,PDE4,6 µM
same,body weight gain,"rats [5]; ip, 1000 mg/kg",reduced body weight gain
same,necropsy findings,"rats [5]; ip, 1000 mg/kg",mesenteric adhesions seen in some animals
same,body weight gains,"rats [5]; po, 2000 mg/kg",slightly reduced
same,side effects,human patients,no significant side effects
same,tolerability,dogs [6]; 91 days,well tolerated
same,feces observation,"dogs [6]; 91 days, 150 and 300 mg/kg/day",Orange discoloration of the feces
same,body weights,"dogs [6]; 91 days, highest dose group",Slightly lowered body weights
same,liver weights,"dogs [6]; 91 days, highest dose group",increased liver weights
same,microscopic alterations (liver),"dogs [6]; 91 days, highest dose group",no microscopic alterations
same,route of elimination (suggested by feces colour),"dogs [6]; 91 days, oral",most of Compound 38 was being eliminated via the feces
same,toxicological effects,"dogs [6]; oral, 91 consecutive days, 50, 150 and 300 mg/kg/day",no toxicological effects
same,macroscopic tissue changes at necropsy,rats [7]; 28 days,No macroscopic tissue changes
same,liver weights,"rats [7]; 28 days, 2000 mg/kg/day",statistically significant increase in liver weights
same,thyroid weights,"rats [7]; 28 days, 2000 mg/kg/day",statistically significant increases in thyroid weights
same,"body weight changes, ophthalmoscopic examinations, hematological and blood chemistry values, urinalysis",rats [7]; [10],unremarkable
same,clinical observations,rats [7]; [10],no abnormal clinical observations
same,slight liver and thyroid weight increases,"rats [7]; 28 days, lower doses",not statistically significant
same,histopathological evaluation of tissues,"rats [7]; 28 days, small number of animals at 2000 mg/kg/day, one female at 500 mg/kg/day","traces of follicular cell hypertrophy, increased numbers of mitotic figures (suggestive of possible cell proliferation) in the thyroid gland and mild centrilobular hypertrophy in the liver"
same,IC50,PDE1,3 µM
same,level of TNF-α secreted (FIG. 12),[8],significantly reduced
